Measured values reported in patent US4605744A, “Imidazole derivatives” (Hoffmann-La Roche Inc., priority 1985, dated 1986).
Counter-ions that a name gives are not always drawn. Like-named read-outs stand apart in the source and are kept apart here.

Key:
Experiment in all cases: In vitro antibacterial activity (MIC)
Format in all cases: cell-based
[1] = tested on: S. marcescens S5; conditions: Serratia marcescens, S5, S. marcescens S5; read-out: MIC
Method: (§1) Drug dilutions are prepared in Mueller-Hinton broth ranging from 128 to 0.008 μg/ml. The diluted agents are dispensed in 100 μl amounts into the wells of a 96-well tray and used immediately or frozen at -10° to -70° C. until needed. Using an automated inoculator, 1.5 μl of a 10^-2 dilution of an overnight culture is added to each well of the tray. The tops of the trays are then sealed using transparent tape and incubated overnight at 37° C. The trays are examined with the aid of a viewer. The lowest concentration at which no growth is observed is considered to be the minimum inhibitory concentration (MIC).

[2] = tested on: E. aerogenes 8; conditions: Klebsiella aerogenes; E. aerogenes 8; read-out: MIC
Method: as §1

[3] = tested on: E. aerogenes 503-478; conditions: Klebsiella aerogenes, 503478, E. aerogenes 503-478; read-out: MIC
Method: as §1

[4] = tested on: S. marcescens S4; conditions: Serratia marcescens, S4, S. marcescens S4; read-out: MIC
Method: as §1

[5] = tested on: P. aeruginosa Stone 130; conditions: Pseudomonas aeruginosa, STONE130, read-out: MIC
Method: as §1

[6] = tested on: E. cloacae 214; conditions: Enterobacter cloacae, 214, E. cloacae 214; read-out: MIC
Method: as §1

[7] = tested on: S. marcescens SM; conditions: Serratia marcescens, read-out: MIC
Method: as §1

[8] = tested on: E. coli 48; conditions: Escherichia coli, 48, E. coli 48; read-out: MIC
Method: as §1

[9] = tested on: S. marcescens S1; conditions: Serratia marcescens
Method: as §1

[10] = tested on: K. pneumoniae 8357; conditions: Klebsiella pneumoniae, 8357, K. pneumoniae 8357; read-out: MIC
Method: as §1

[11] = tested on: S. schottmuelleri; conditions: read-out: MIC
Method: as §1

[12] = tested on: S. marcescens S2; conditions: Serratia marcescens; S. marcescens S2; read-out: MIC
Method: as §1

[13] = tested on: P. aeruginosa 503-820; conditions: Pseudomonas aeruginosa, 503820; P. aeruginosa 503-820; read-out: MIC
Method: as §1

[14] = tested on: P. aeruginosa 5700; conditions: Pseudomonas aeruginosa, 5700, P. aeruginosa 5700; read-out: MIC
Method: as §1

[15] = tested on: S. marcescens S714; conditions: Serratia marcescens
Method: as §1

[16] = tested on: P. aeruginosa 5712; conditions: Pseudomonas aeruginosa; P. aeruginosa 5712; read-out: MIC
Method: as §1

[17] = tested on: E. coli 4; conditions: Escherichia coli, 4, E. coli 4; read-out: MIC
Method: as §1

[18] = tested on: E. coli 5152
Method: as §1

[19] = tested on: E. cloacae 6951
Method: as §1

[20] = tested on: P. mirabilis 2; conditions: Proteus mirabilis, 2, P. mirabilis 2; read-out: MIC
Method: as §1

[21] = tested on: K. pneumoniae HE7; conditions: Klebsiella pneumoniae; K. pneumoniae HE7; read-out: MIC
Method: as §1

[22] = tested on: S. pyogenes 503-782; conditions: Streptococcus pyogenes, 503782; S. pyogenes 503-782; read-out: MIC
Method: as §1

[23] = tested on: P. aeruginosa 8780; conditions: Pseudomonas aeruginosa; P. aeruginosa 8780; read-out: MIC
Method: as §1

[24] = tested on: P. vulgaris 100; conditions: Proteus vulgaris
Method: as §1

[25] = tested on: K. pneumoniae 35
Method: as §1

[26] = tested on: S. faecalis C1; conditions: Enterococcus faecalis; S. faecalis C1; read-out: MIC
Method: as §1

[27] = tested on: K. pneumoniae 503-964; conditions: Klebsiella pneumoniae, 503964; K. pneumoniae 503-964; read-out: MIC
Method: as §1

[28] = tested on: P. mirabilis 620A; conditions: Proteus mirabilis, 620A
Method: as §1

[29] = tested on: S. marcescens S147; conditions: Serratia marcescens; S. marcescens S147; read-out: MIC
Method: as §1

[30] = tested on: P. vulgaris 101; conditions: Proteus vulgaris, 101, P. vulgaris 101; read-out: MIC
Method: as §1

[31] = tested on: S. aureus Smith; conditions: Staphylococcus aureus, S. aureus Smith; read-out: MIC
Method: as §1

[32] = tested on: E. aerogenes 83; conditions: Klebsiella aerogenes, 83, E. aerogenes 83; read-out: MIC
Method: as §1

[33] = tested on: S. marcescens 5805
Method: as §1

[34] = tested on: P. aeruginosa B; conditions: Pseudomonas aeruginosa, read-out: MIC
Method: as §1

[35] = tested on: K. pneumoniae 503-994; conditions: Klebsiella pneumoniae, 503994, K. pneumoniae 503-994; read-out: MIC
Method: as §1

[36] = tested on: E. cloacae 9295; conditions: Enterobacter cloacae, 9295, E. cloacae 9295; read-out: MIC
Method: as §1

[37] = tested on: P. aeruginosa 6148B; conditions: Pseudomonas aeruginosa, read-out: MIC
Method: as §1

[38] = tested on: E. coli 503-455
Method: as §1

[39] = tested on: P. aeruginosa POW 151; conditions: Pseudomonas aeruginosa, POW151
Method: as §1

[40] = tested on: C. diversus CDC 1663-72; conditions: Citrobacter koseri, CDC166372; C. diversus CDC 1663-72; read-out: MIC
Method: as §1

[41] = tested on: E. coli 387-1
Method: as §1

[42] = tested on: K. pneumoniae 4964
Method: as §1

[43] = tested on: S. aureus 1059B; conditions: Staphylococcus aureus, read-out: MIC
Method: as §1

[44] = tested on: E. cloacae 9570A; conditions: Enterobacter cloacae, read-out: MIC
Method: as §1

[45] = tested on: S. aureus Giorgio; conditions: Staphylococcus aureus, S. aureus Giorgio; read-out: MIC
Method: as §1

[46] = S1, S. marcescens S1, read-out: MIC
[47] = S714, S. marcescens S714, read-out: MIC
[48] = Klebsiella pneumoniae, K. pneumoniae 35, read-out: MIC
[49] = Serratia marcescens, 5805, S. marcescens 5805, read-out: MIC
[50] = Escherichia coli, 3871, E. coli 387-1, read-out: MIC
[51] = Enterobacter cloacae, 6951, E. cloacae 6951, read-out: MIC
[52] = P. mirabilis 620A, read-out: MIC

CC1(C)S[C@@H]2[C@H](N=CN3CCC(CCCn4ccnc4N)CC3)C(=O)N2[C@H]1C(=O)O [I, [2S-(2alpha,5alpha,6beta)]-6-[[[4-[3-(2-amino-1H-imidazol-1-yl)propyl]piperidinyl]methylene]amino]-3,3-dimethyl-7-oxo-4-thia-1-azabicyclo[3.2.0]hpetane-2-carboxylic acid hydrochloride]
MIC [1]: 0.25 µg/mL
MIC [2]: 128 µg/mL
MIC [3]: 1 µg/mL
MIC [4]: 0.25 µg/mL
MIC [5]: > 128 µg/mL
MIC [6]: 0.062 µg/mL
MIC [7]: 0.062 µg/mL
MIC [8]: 0.031 µg/mL
MIC [9, 46]: 0.062 µg/mL
MIC [10]: 0.062 µg/mL
MIC [11]: 0.031 µg/mL
MIC [12]: 0.062 µg/mL
MIC [13]: 128 µg/mL
MIC [14]: 0.062 µg/mL
MIC [15, 47]: 0.125 µg/mL
MIC [16]: > 128 µg/mL
MIC [17]: 0.031 µg/mL
MIC ([18]; Escherichia coli, 5152): 4 µg/mL
MIC ([19]; Enterobacter cloacae, 6951): 8 µg/mL
MIC [20]: 0.25 µg/mL
MIC [21]: > 128 µg/mL
MIC [22]: > 128 µg/mL
MIC [23]: > 128 µg/mL
MIC ([24]; P. vulgaris 100, read-out: MIC): 4 µg/mL
MIC [25, 48]: 0.25 µg/mL
MIC [26]: > 128 µg/mL
MIC [27]: 0.062 µg/mL
MIC [28]: 32 µg/mL
MIC [29]: 0.062 µg/mL
MIC [30]: 128 µg/mL
MIC [31]: 16 µg/mL
MIC [32]: 1 µg/mL
MIC [33, 49]: 0.25 µg/mL
MIC [34]: 0.062 µg/mL
MIC [35]: 0.062 µg/mL
MIC [36]: 0.125 µg/mL
MIC [37]: 128 µg/mL
MIC ([38]; Escherichia coli, 503455): 1 µg/mL
MIC [39]: > 128 µg/mL
MIC [40]: 0.031 µg/mL
MIC [41, 50]: 0.062 µg/mL
MIC ([42]; Klebsiella pneumoniae, 4964): 0.25 µg/mL
MIC [43]: 64 µg/mL
MIC [44]: 0.125 µg/mL

CC1(C)S[C@@H]2[C@H](N=CN3CCC(CCC4=NCCN4)CC3)C(=O)N2[C@H]1C(=O)O [N, [2S-(2alpha,5alpha,6beta)]-6-[[[4-[4,5-dihydro-1H-imidazol-2-yl)ethyl]-1-piperidinyl]methylene]amino]-3,3-dimethyl-7-oxo-4-thia-1-azabicyclo[3.2.0]heptane-2-carboxylic acid hydrochloride]
MIC [1]: 0.25 µg/mL
MIC [2]: 32 µg/mL
MIC [3]: 4 µg/mL
MIC [4]: 0.25 µg/mL
MIC [5]: > 128 µg/mL
MIC [6]: 0.062 µg/mL
MIC [7]: 0.062 µg/mL
MIC [8]: 0.031 µg/mL
MIC ([9]; S1): 2 µg/mL
MIC [10]: 0.125 µg/mL
MIC [11]: 0.031 µg/mL
MIC [12]: 0.062 µg/mL
MIC [13]: 16 µg/mL
MIC [14]: 0.062 µg/mL
MIC [15, 47]: 0.125 µg/mL
MIC [16]: 64 µg/mL
MIC [17]: 0.016 µg/mL
MIC ([18]; Escherichia coli, 5152): 8 µg/mL
MIC [19, 51]: 8 µg/mL
MIC [20]: 0.125 µg/mL
MIC [21]: > 128 µg/mL
MIC [22]: 64 µg/mL
MIC [23]: 128 µg/mL
MIC [24]; 100: 0.5 µg/mL
MIC [25, 48]: 0.125 µg/mL
MIC [26]: 64 µg/mL
MIC [27]: 0.062 µg/mL
MIC [28, 52]: 128 µg/mL
MIC [29]: 0.062 µg/mL
MIC [30]: 64 µg/mL
MIC [31]: 8 µg/mL
MIC [32]: 8 µg/mL
MIC ([33]; Serratia marcescens, 5805): 0.25 µg/mL
MIC [34]: 0.062 µg/mL
MIC [35]: 0.062 µg/mL
MIC [36]: 0.125 µg/mL
MIC [37]: 32 µg/mL
MIC ([38]; Escherichia coli, 503455): 1 µg/mL
MIC [39]: > 128 µg/mL
MIC [40]: 0.031 µg/mL
MIC [41, 50]: 0.016 µg/mL
MIC ([42]; Klebsiella pneumoniae, 4964): 32 µg/mL
MIC [43]: 64 µg/mL
MIC [44]: 0.062 µg/mL

CC1(C)S[C@@H]2[C@H](N=CN3CCCC(c4ncc[nH]4)C3)C(=O)N2[C@H]1C(=O)O (stereo partly drawn) [P, [2S-(2alpha,5alpha,6beta)]-6-[[[3-(1H-imidazol-2-yl)-1-piperidinyl]methylene]amino]-3,3-dimethyl-7-oxo-4-thia-1-azabicyclo[3.2.0]heptane-2-carboxylicacid hydrochloride]
MIC [1]: > 128 µg/mL
MIC [45]: 4 µg/mL
MIC [2]: 16 µg/mL
MIC [3]: > 128 µg/mL
MIC [4]: > 128 µg/mL
MIC [6]: 8 µg/mL
MIC [7]: 8 µg/mL
MIC [8]: 2 µg/mL
MIC [9, 46]: 8 µg/mL
MIC [10]: 8 µg/mL
MIC [11]: 2 µg/mL
MIC [12]: 8 µg/mL
MIC [14]: 8 µg/mL
MIC ([15]; S714): 32 µg/mL
MIC [17]: 2 µg/mL
MIC ([18]; Escherichia coli, 5152, E. coli 5152, read-out: MIC): > 128 µg/mL
MIC [19, 51]: > 128 µg/mL
MIC [20]: 8 µg/mL
MIC [21]: 128 µg/mL
MIC ([24]; P. vulgaris 100, read-out: MIC): 128 µg/mL
MIC ([25]; Klebsiella pneumoniae, 35, K. pneumoniae 35): 16 µg/mL
MIC [27]: 8 µg/mL
MIC [28, 52]: > 128 µg/mL
MIC [29]: 8 µg/mL
MIC [30]: 64 µg/mL
MIC [31]: 2 µg/mL
MIC [32]: 8 µg/mL
MIC [33, 49]: 128 µg/mL
MIC [35]: 8 µg/mL
MIC [36]: 8 µg/mL
MIC ([38]; Escherichia coli, 503455, E. coli 503-455, read-out: MIC): 64 µg/mL
MIC [40]: 2 µg/mL
MIC ([41]; Escherichia coli, 3871): 4 µg/mL
MIC ([42]; Klebsiella pneumoniae, 4964, K. pneumoniae 4964, read-out: MIC): 64 µg/mL
MIC [43]: 64 µg/mL
MIC [44]: 8 µg/mL
